Data taken from US9862730B2, “Imidazothiadiazole derivatives as protease activated receptor 4 (PAR4) inhibitors for treating platelet aggregation” (BRISTOL-MYERS SQUIBB COMPANY, priority 2012, dated 2018).

What follows are compounds tested against PAR4 (Homo sapiens (Human), UniProt Q96RI0) (assay: FLIPR assay in PAR4-expressing HEK293 cells (PAR4 antagonist activity, calcium mobilization)). Details: FLIPR assay as described in Example A.
Type: cell-based
Text: The FLIPR assay is an exemplary in vitro assay for measuring the activity of the PAR4 antagonists of the present invention. In this assay, intracellular calcium mobilization is induced in PAR4 expressing cells by a PAR4 agonist and calcium mobilization is monitored. See, e.g., Example A.
HEK293 cells stably expressing PAR4 were generated by a standard method of transfection of human […] cDNA expression vector or by RAGE technology from Athersys Inc. (Cleveland, Ohio) and selected based on PAR4 protein expression of mRNA expression. […] These cells express endogenous PAR1 and can elicit calcium signal upon stimulation with PAR1 agonist peptide.
Counter screens for agonist activity and PAR1 antagonist activity were also performed. Briefly, HEK293 EBNA PAR4 clone 20664.1J cells were plated 24 hrs. prior to experiment in 384 well, Poly-D-Lysine coated, black, clear bottom plates (Greiner Bio-One, Monroe, N.C.). Cells were plated at 20,000 cells/well in 20 μl growth medium and incubated at 37° C. with 5% CO2 overnight. At time of assay, media was replaced with 40 μl 1× Hank's Buffered Saline Solution (HBSS) (with 10 mM HEPES) and 20 μl test compound also diluted in 1×HBSS buffer was added at various concentrations and 0.67% DMSO final concentration on the FDSS for agonist measurement. The cells were then incubated for 30 minutes at room temperature followed by addition of 20 μl of agonist peptide for antagonist measurement on the FDSS.
As indicated above, the FLIPR assay, an in vitro assay, measures the PAR4 antagonist activity of compounds tested as described in Example A.

PAR4, sequence (Q96RI0 18-385): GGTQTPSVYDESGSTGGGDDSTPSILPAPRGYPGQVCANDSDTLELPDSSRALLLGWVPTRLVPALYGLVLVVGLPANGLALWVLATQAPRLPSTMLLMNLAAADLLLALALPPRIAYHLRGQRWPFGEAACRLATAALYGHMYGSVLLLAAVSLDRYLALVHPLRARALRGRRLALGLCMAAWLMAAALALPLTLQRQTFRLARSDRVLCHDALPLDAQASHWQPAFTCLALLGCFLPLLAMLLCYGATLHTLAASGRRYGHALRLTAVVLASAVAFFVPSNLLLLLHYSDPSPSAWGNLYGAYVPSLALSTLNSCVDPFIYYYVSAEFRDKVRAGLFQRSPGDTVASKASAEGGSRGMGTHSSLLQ

| SMILES | IC50 |
| --- | --- |
| COc1nn2cc(-c3cc4c(Br)ccc(OC)c4o3)nc2s1 [Example 289] | 29.6 nM |
| COc1cc(OC[C@@H]2COC(C)(C)O2)c2cc(-c3cn4nc(OC)sc4n3)oc2c1 [Example 339, (R)-6-(4-((2,2-Dimethyl-1,3-dioxolan-4-yl)methoxy)-6-methoxybenzofuran-2-yl)-2-methoxyimidazo[2,1-b][1,3,4]thiadiazole] | 0.87 nM |
| CCc1nn2cc(-c3cc4ccccc4o3)nc2s1 [Example 47] | 68 nM |
| COc1nn2cc(-c3cc4c(OCc5ccc(F)cc5)cccc4o3)nc2s1 [Example 266] | 43.1 nM |
| CSc1nn2cc(-c3nc4ccc(OCc5ccc(Cl)cc5)cc4o3)nc2s1 [Example 169] | 70.5 nM |
| CC(F)(F)c1nn2cc(-c3cc4c(Cl)cc(Cl)cc4o3)nc2s1 [Example 238] | 42.5 nM |
| CSc1nn2cc(-c3nc4ccc(OCc5cc(F)cc(F)c5)cc4o3)nc2s1 [Example 152] | 340 nM |
| CSc1nn2cc(-c3nc4cccc(F)c4o3)nc2s1 [Example 143] | 48.8 nM |
| COc1cc(OC[C@H]2CCCN2C(=O)c2ccc(F)cc2)c2cc(-c3cn4nc(OC)sc4n3)oc2c1 [Example 341] | 22 nM |
| COc1nn2cc(-c3nc4cccc(F)c4o3)nc2s1 [Example 144] | 91.3 nM |
| COc1nn2cc(-c3cc4ccc(OCc5ccccc5)cc4o3)nc2s1 [Example 104] | 26.2 nM |
| COc1cc(OCc2cc(OCc3ccccc3)cc(C(F)(F)F)c2)c2cc(-c3cn4nc(OC)sc4n3)oc2c1 [Example 400] | 7.47 nM |
| COc1ccc(COc2ccc3nc(-c4cn5nc(SC)sc5n4)oc3c2)cc1 [Example 170] | 116 nM |
| COCOc1c(Br)ccc2oc(-c3cn4nc(OC)sc4n3)cc12 [Example 217A, 6-(5-Bromo-4-(methoxymethoxy)benzofuran-2-yl)-2-methoxyimidazo[2,1-b][1,3,4]thiadiazole] | 45.1 nM |
| CSc1nn2cc(-c3nc4ccccc4s3)nc2s1 [Example 4, 2-(2-(Methylthio)imidazo[2,1-b][1,3,4]thiadiazol-6-yl)benzo[d]thiazole] | 12.9 nM |
| CCOC(=O)CCCCCOc1cccc2cc(-c3cn4nc(CC)sc4n3)oc12 [Example 65] | 1470 nM |
| COc1nn2cc(-c3cc4c(C)cc(C)cc4o3)nc2s1 [Example 297] | 5.88 nM |
| CSc1nn2cc(-c3nc4ccc(OCc5ccccc5)cc4o3)nc2s1 [Example 115, 6-(Benzyloxy)-2-(2-(methylthio)imidazo[2,1-b][1,3,4]thiadiazol-6-yl)benzo[d]oxazole] | 74.9 nM |
| COc1nn2cc(-c3nc4ccccc4o3)nc2s1 [Example 111, 2-(2-Methoxyimidazo[2,1-b][1,3,4]thiadiazol-6-yl)benzo[d]oxazole] | 140 nM |
| COc1ccc2cc(-c3cn4nc(OC)sc4n3)oc2c1 [Example 71] | 1.22 nM |
| CCc1nn2cc(-c3nc4cc(C)cc(C)c4o3)nc2s1 [Example 58] | 565 nM |
| COc1nn2cc(-c3cc4cccc(OC)c4o3)nc2s1 [Example 9, 2-Methoxy-6-(7-methoxybenzofuran-2-yl)imidazo[2,1-b][1,3,4]thiadiazole] | 224 nM |

| SMILES | IC50 |
| --- | --- |
| Clc1cc(Cl)c2cc(-c3cn4nc(Br)sc4n3)oc2c1 [Example 288] | 94.1 nM |
| COc1ccc2oc(-c3cn4nc(OC)sc4n3)nc2c1 [Example 142] | 27.8 nM |
| COCOc1cccc2oc(-c3cn4nc(SC)sc4n3)cc12 [Example 215, 6-(4-(Methoxymethoxy)benzofuran-2-yl)-2-(methylthio)imidazo[2,1-b][1,3,4]thiadiazole] | 16.7 nM |
| CCc1nn2cc(-c3cc4cccc(OC)c4o3)nc2s1 [Example 37] | 8.51 nM |
| COc1nn2cc(-c3nc4cc(F)c(F)cc4o3)nc2s1 [Example 138] | 470 nM |
| COc1ccc2c(C)c(-c3cn4nc(SC)sc4n3)oc2c1OC [Example 25] | 2.81 nM |
| COc1cc(OCc2cccc(OCc3ccccc3)c2)c2cc(-c3cn4nc(Br)sc4n3)oc2c1 [Example 344] | 1.12 nM |
| CCc1nn2cc(-c3cc4cccc(OCCCC#N)c4o3)nc2s1 [Example 66] | 2620 nM |
| COc1cc(OCc2cccc(OCc3ccc(OCc4ccccc4)c(OC)c3)c2)c2cc(-c3cn4nc(OC)sc4n3)oc2c1 [Example 357] | 4.92 nM |
| CSc1nn2cc(-c3nc4ccc(OCc5ccc(C(F)(F)F)cc5)cc4o3)nc2s1 [Example 153] | 345 nM |
| COc1cc(OCc2cccc(OCc3ccc(C)c(Cl)c3)c2)c2cc(-c3cn4nc(OC)sc4n3)oc2c1 [Example 324] | 3.52 nM |
| COc1cc(OC(C)C)c2cc(-c3cn4nc(SC)sc4n3)oc2c1 [Example 298] | 18.6 nM |
| COc1cc(OCc2cccc(OCc3cccc(OCc4cccc(Cl)c4)c3)c2)c2cc(-c3cn4nc(OC)sc4n3)oc2c1 [Example 375] | 260 nM |
| CSc1nn2cc(-c3nc4ccc(C)cc4s3)nc2s1 [Example 190] | 204 nM |
| COc1nn2cc(-c3cc4cccc(C)c4o3)nc2s1 [Example 89] | 28.2 nM |
| COc1nn2cc(-c3cc4c(O)c(Cc5ccccc5)c(OC)cc4o3)nc2s1 [Example 224, 5-Benzyl-6-methoxy-2-(2-methoxyimidazo[2,1-b][1,3,4]thiadiazol-6-yl)benzofuran-4-ol] | 97.1 nM |
| COc1cc(OCc2cccc(OCc3ccc(Cl)cc3Cl)c2)c2cc(-c3cn4nc(OC)sc4n3)oc2c1 [Example 378] | 7.38 nM |
| CCOc1ccc2nc(-c3cn4nc(SC)sc4n3)oc2c1 [Example 160] | 40 nM |
| COc1nn2cc(-c3cc4c(F)cccc4o3)nc2s1 [Example 279] | 3.46 nM |
| COc1nn2cc(-c3cc4cc(Br)c(OC)cc4o3)nc2s1 [Example 278] | 52.6 nM |
| COc1cc(OC)c2nc(-c3cn4nc(SC)sc4n3)oc2c1 [Example 177] | 3.78 nM |
| COc1ccc(Br)c2cc(-c3cn4nc(Br)sc4n3)oc12 [Example 285] | 317 nM |

| SMILES | IC50 |
| --- | --- |
| CSc1nn2cc(-c3nc4cc(C)ccc4o3)nc2s1 [Example 113] | 15.2 nM |
| Cc1cc2oc(-c3cn4nc(C(C)(F)F)sc4n3)cc2cc1Cl [Example 274] | 1970 nM |
| COc1cc(OC)c2cc(-c3cn4nc(C(C)F)sc4n3)oc2c1 (centres unmarked) [Example 212, 6-(4,6-Dimethoxybenzofuran-2-yl)-2-(1-fluoroethyl)imidazo-[2,1-b][1,3,4]thiadiazole] | 50.9 nM |
| COc1cc(OCc2cccc(OCc3ccccc3C(F)(F)F)c2)c2cc(-c3cn4nc(OC)sc4n3)oc2c1 [Example 326] | 3.36 nM |
| Cc1ccc2cc(-c3cn4nc(C(F)(F)Cl)sc4n3)oc2c1 [Example 244] | 383 nM |
| COc1cc(O)c2cc(-c3cn4nc(OC)sc4n3)oc2c1 [Example 204, 6-Methoxy-2-(2-methoxyimidazo[2,1-b][1,3,4]thiadiazol-6-yl)benzofuran-4-ol] | 170 nM |
| COc1cc(OCc2cccc(OCc3cc(C)cc(C)c3)c2)c2cc(-c3cn4nc(OC)sc4n3)oc2c1 [Example 382] | 1.67 nM |
| CC(F)(F)c1nn2cc(-c3nc4ccccc4o3)nc2s1 [Example 178] | 2340 nM |
| COc1cc(OC)c2cc(-c3cn4nc(SC)sc4n3)oc2c1 [Example 229] | 1.22 nM |
| C[C@@H](F)c1nn2cc(-c3cc4c(Cl)cc(Cl)cc4o3)nc2s1 [Example 213A, (R)-6-(4,6-Dichlorobenzofuran-2-yl)-2-(1-fluoroethyl)imidazo[2,1-b][1,3,4]thiadiazole] | 333 nM |
| COc1nn2cc(-c3cc4ccc(O)cc4o3)nc2s1 [Example 108] | 461 nM |
| COc1nn2cc(-c3cc4c(OCc5cccc(OCc6ccccc6)c5)cc(NC(C)=O)cc4o3)nc2s1 [Example 412, N-(4-((3-(Benzyloxy)benzyl)oxy)-2-(2-methoxyimidazo[2,1-b][1,3,4]thiadiazol-6-yl)benzofuran-6-yl)acetamide] | 72.5 nM |
| COc1cc(OCc2cccc(OCc3ccccc3Br)c2)c2cc(-c3cn4nc(OC)sc4n3)oc2c1 [Example 360] | 2.47 nM |
| CCc1nn2cc(-c3nc4ccc(OCc5ccc(Cl)cc5)cc4o3)nc2s1 [Example 83] | 1010 nM |
| CC(F)(F)c1nn2cc(-c3nc4c(N)cccc4o3)nc2s1 [Example 124, 2-(2-(1,1-Difluoroethyl)imidazo[2,1-b][1,3,4]thiadiazol-6-yl)-4-aminobenzo[d]oxazole] | 3480 nM |
| COc1cc2oc(-c3cn4nc(SC)sc4n3)cc2cc1Cl [Example 202, 6-(5-Chloro-6-methoxybenzofuran-2-yl)-2-(methylthio)imidazo[2,1-b][1,3,4]thiadiazole] | 3.15 nM |
| COc1ccc2oc(-c3cn4nc(OC)sc4n3)cc2c1 [Example 93] | 222 nM |
| CSc1nn2cc(-c3nc4ccc(OCc5cccc(C#N)c5)cc4o3)nc2s1 [Example 150] | 621 nM |
| COc1nn2cc(-c3nc4cc(C)c(C)cc4o3)nc2s1 [Example 136] | 38.9 nM |
| COCCOc1cccc2oc(-c3cn4nc(OC)sc4n3)cc12 [Example 256] | 48.4 nM |
| COc1cc(OCc2cccc(OCc3ccc(Cl)c(Cl)c3)c2)c2cc(-c3cn4nc(OC)sc4n3)oc2c1 [Example 365] | 3.27 nM |
